Patent US20250179047A1, “5-[7-(3,4-DIHYDRO-1H-ISOQUINOLINE-2-CARBONYL)-1,2,3,4 TETRAHYDROISOQUINOLIN-6-YL]-1H-PYRROLE-3-CARBOXAMIDE DERIVATIVES, PHARMACEUTICAL COMPOSITIONS CONTAINING THEM AND THEIR USES AS PRO-APOPTOTIC AGENTS” (LES LABORATOIRES SERVIER, priority 2022, published 2025)

Tests used:
[1] = target: BCLXL WT (Homo sapiens (Human), UniProt Q07817); assay: TR-FRET competitive binding assay, BCLXL WT; details: for Ki: BCLXL WT, Ki determined from IC50, read-out: TR_FRET EKI BclxL; for TR_FRET EKI BCLxL/WT selectivty ratio: ratio Ki BCLxL / Ki BCL2 WT
BCLXL WT, sequence (Q07817 other isoform, or with tags, fused parts or gaps): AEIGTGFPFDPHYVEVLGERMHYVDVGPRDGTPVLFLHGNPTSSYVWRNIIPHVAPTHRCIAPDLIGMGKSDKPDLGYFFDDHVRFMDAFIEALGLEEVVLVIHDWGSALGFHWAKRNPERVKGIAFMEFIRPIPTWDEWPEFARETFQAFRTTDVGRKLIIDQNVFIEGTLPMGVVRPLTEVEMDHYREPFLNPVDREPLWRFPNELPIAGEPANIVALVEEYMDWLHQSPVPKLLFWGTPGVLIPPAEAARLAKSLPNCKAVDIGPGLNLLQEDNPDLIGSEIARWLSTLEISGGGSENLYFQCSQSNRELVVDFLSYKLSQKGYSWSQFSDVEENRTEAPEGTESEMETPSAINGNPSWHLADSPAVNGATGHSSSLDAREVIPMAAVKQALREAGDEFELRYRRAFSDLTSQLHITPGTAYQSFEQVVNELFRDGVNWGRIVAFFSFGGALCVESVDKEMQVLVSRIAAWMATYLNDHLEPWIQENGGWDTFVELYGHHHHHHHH
Summary of the method: (§1)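 Competitive TR-FRET displacement of fluorescein-PUMA peptide (2 or 20 nM) from 0.5 nM terbium-labelled N-terminal Halo-fusion BCL2 (1-207, wild type or mutant) or BCLXL (2-196), expressed in E. coli. Buffer 50 mM Hepes pH 7.5, 150 mM NaCl, 5% DMSO; 2 h at 23°C. 520/495 nm ratio fitted over 11 points for IC50, converted to Ki.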

[2] = target: BCL2 D103Y (Homo sapiens, UniProt P10415, D103Y); assay: TR-FRET competitive binding assay, BCL2 D103Y; details: Ki determined from IC50, read-out: TR_FRET EKI_Bcl2 D103Y
Summary of the method: as §1

[3] = system: KMS-12-PE Bcl-2 WT; assay: In vitro cytotoxicity CellTiter-Glo 48 h, KMS-12-PE Bcl-2 WT; type: cell-based; details: Homo sapiens, KMS-12-PE, C50 = concentration needed to reach 50% of the cellular viability
Summary of the method: (§2)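 Potency is expressed as C50, the compound concentration at which viability of engineered KMS-12-PE cells (Bcl-2 wild type or G101V) falls to 50%, determined from CellTiter-Glo luminescence after 48 h of treatment over 11 concentrations.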

[4] = system: BCL2 G101V; assay: TR-FRET competitive binding assay, BCL2 G101V; parameters: species or system human; details: ratio Ki BCL2 G101V / Ki BCL2 WT
Summary of the method: as §1

[5] = target: BCL2 G101V (Homo sapiens, UniProt P10415, G101V); assay: TR-FRET competitive binding assay, BCL2 G101V; details: BCL2 G101V; Ki determined from IC50; read-out: TR_FRET EKI_Bcl2 G101V
Summary of the method: as §1

[6] = target: BCL2 WT (Homo sapiens (Human), UniProt P10415); assay: TR-FRET competitive binding assay, BCL2 WT; details: Ki determined from IC50, read-out: TR_FRET EKI_Bcl2 WT
Summary of the method: as §1

[7] = system: KMS-12-PE Bcl-2 G101V; assay: In vitro cytotoxicity CellTiter-Glo 48 h, KMS-12-PE Bcl-2 G101V; type: cell-based; details: for Ratio (G101V/WT): C50 KMS-12-PE Bcl-2 G101V over C50 KMS-12-PE Bcl-2 WT; for IC50: Homo sapiens, KMS-12-PE, 48 h, CellTiter-Glo, C50 = concentration needed to reach 50% of the cellular viability
Summary of the method: as §2

Structure (SMILES) | Ki [1] | TR_FRET EKI BCLxL/WT selectivty ratio [1] | Ki [2] | TR_FRET EKI G101V/WT selectivty ratio [4] | Ki [5] | Ki [6] | IC50 [3] | Ratio (G101V/WT) [7] | IC50 [7]
Cc1c(C(=O)N(c2ccc(O)cc2)c2cc(C#N)n(C(F)F)c2C)cc(-c2cc3c(cc2C(=O)N2Cc4ccccc4C[C@H]2CN2CCCCC2)CN(C(=O)Cc2ccc(OCCN4C[C@@H](C)O[C@@H](C)C4)cc2)CC3)n1C [Example 129, N-[5-cyano-1-(difluoromethyl)-2-methylpyrrol-3-yl]-5-{2-[2-(4-{2-[cis-2,6-dimethylmorpholin-4-yl]ethoxy}phenyl)acetyl]-7-{[(3S)-3-(piperidin-1-ylmethyl)-3,4-dihydro-1H-isoquinolin-2-yl]carbonyl}-3,4-dihydro-1H-isoquinolin-6-yl}-N-(4-hydroxyphenyl)-1,2-dimethylpyrrole-3-carboxamide] | 14.4 nM | 96.0 | 0.24 nM | 5.5 | 0.8 nM | 0.15 nM | 0.014 µM | 4.5143 | 0.0632 µM
Cc1c(N(C(=O)c2cc(-c3cc4c(cc3C(=O)N3Cc5ccccc5C[C@H]3CN3CCC(F)(F)CC3)CN(C(=O)Cc3ccc(OCCN5CCOCC5)cc3F)CC4)n(C)c2C)c2ccc(O)cc2)cc(C#N)n1C [Example 130, N-(5-cyano-1,2-dimethyl-1H-pyrrol-3-yl)-5-{7-[(3S)-3-[(4,4-difluoropiperidin-1-yl)methyl]-1,2,3,4-tetrahydroisoquinoline-2-carbonyl]-2-(2-{2-fluoro-4-[2-(morpholin-4-yl)ethoxy]phenyl}acetyl)-1,2,3,4-tetrahydroisoquinolin-6-yl}-N-(4-hydroxyphenyl)-1,2-dimethyl-1H-pyrrole-3-carboxamide] | 6.1 nM | 15.3 | 1.33 nM | 5.8 | 2.3 nM | 0.4 nM | 0.0055 µM | 4.69 | 0.0258 µM
Cc1c(N(C(=O)c2cc(-c3cc4c(cc3C(=O)N3Cc5ccccc5C[C@H]3CN3CCCCC3)CN(C(=O)Cc3ccc(CCN5CCC(F)(F)CC5)cc3)CC4)n(C)c2C)c2ccc(O)cc2)cc(C#N)n1C [Example 131, N-(5-cyano-1,2-dimethylpyrrol-3-yl)-5-[2-(2-{4-[2-(4,4-difluoropiperidin-1-yl)ethyl]phenyl}acetyl)-7-{[(3S)-3-(piperidin-1-ylmethyl)-3,4-dihydro-1H-isoquinolin-2-yl]carbonyl}-3,4-dihydro-1H-isoquinolin-6-yl]-N-(4-hydroxyphenyl)-1,2-dimethylpyrrole-3-carboxamide] | 8.7 nM | 37.8 | 0.53 nM | 6.5 | 1.5 nM | 0.23 nM | 0.0361 µM | 6.759 | 0.244 µM
Cc1c(N(C(=O)c2cc(-c3cc4c(cc3C(=O)N3Cc5ccccc5C[C@H]3CN3CCCCC3)CN(C(=O)Cc3ccc(OC(C)(C)CN5CCOCC5)cc3)CC4)n(C)c2C)c2ccc(O)cc2)cc(C#N)n1C [Example 132, N-(5-cyano-1,2-dimethyl-1H-pyrrol-3-yl)-N-(4-hydroxyphenyl)-1,2-dimethyl-5-{2-[2-(4-{[2-methyl-1-(morpholin-4-yl)propan-2-yl]oxy}phenyl)acetyl]-7-[(3S)-3-[(piperidin-1-yl)methyl]-1,2,3,4-tetrahydroisoquinoline-2-carbonyl]-1,2,3,4-tetrahydroisoquinolin-6-yl}-1H-pyrrole-3-carboxamide] | 12 nM | 85.7 | 0.37 nM | 20.4 | 2.9 nM | 0.14 nM | 0.066 µM | 7.2727 | 0.48 µM

The next compounds have a lower Ki [1] than those just listed; values first:

Ki [1] | TR_FRET EKI BCLxL/WT selectivty ratio [1] | Ki [2] | TR_FRET EKI G101V/WT selectivty ratio [4] | Ki [5] | Ki [6] | Structure (SMILES) | IC50 [3] | Ratio (G101V/WT) [7] | IC50 [7]
5.2 nM | 52.5 | 0.14 nM | 5.1 | 0.5 nM | 0.1 nM | Cc1c(N(C(=O)c2cc(-c3cc4c(cc3C(=O)N3Cc5ccccc5C[C@H]3CN3CCCCC3)CN(C(=O)Cc3ccc(OCCC5CCOCC5)nc3)CC4)n(C)c2C)c2ccc(O)cc2)cc(C#N)n1C [Example 118, N-(5-cyano-1,2-dimethyl-1H-pyrrol-3-yl)-N-(4-hydroxyphenyl)-1,2-dimethyl-5-[2-(2-{6-[2-(oxan-4-yl)ethoxy]pyridin-3-yl}acetyl)-7-[(3S)-3-[(piperidin-1-yl)methyl]-1,2,3,4-tetrahydroisoquinoline-2-carbonyl]-1,2,3,4-tetrahydroisoquinolin-6-yl]-1H-pyrrole-3-carboxamide] | 0.0107 µM | 7.61 | 0.0814 µM
2.2 nM | 56.4 | 0.14 nM | 5.6 | 0.2 nM | 0.04 nM | Cc1c(N(C(=O)c2cc(-c3cc4c(cc3C(=O)N3Cc5ccccc5C[C@H]3CN3CCCCC3)CN(C(=O)Cc3ccc(OCCN5CCN(C)CC5)cc3)CC4)n(C)c2C)c2ccc(O)cc2)cc(C#N)n1C [Example 119, N-(5-cyano-1,2-dimethyl-1H-pyrrol-3-yl)-N-(4-hydroxyphenyl)-1,2-dimethyl-5-[2-(2-{4-[2-(4-methylpiperazin-1-yl)ethoxy]phenyl}acetyl)-7-[(3S)-3-[(piperidin-1-yl)methyl]-1,2,3,4-tetrahydroisoquinoline-2-carbonyl]-1,2,3,4-tetrahydroisoquinolin-6-yl]-1H-pyrrole-3-carboxamide] | 0.0284 µM | 2.57 | 0.073 µM
3.7 nM | 69.8 | 0.13 nM | 5.1 | 0.3 nM | 0.05 nM | Cc1c(N(C(=O)c2cc(-c3cc4c(cc3C(=O)N3Cc5ccccc5C[C@H]3CN3CCCCC3)CN(C(=O)Cc3ccc(OCCN5CCN(CCF)CC5)cc3)CC4)n(C)c2C)c2ccc(O)cc2)cc(C#N)n1C [Example 122, N-(5-cyano-1,2-dimethyl-1H-pyrrol-3-yl)-5-{2-[2-(4-{2-[4-(2-fluoroethyl)piperazin-1-yl]ethoxy}phenyl)acetyl]-7-[(3S)-3-[(piperidin-1-yl)methyl]-1,2,3,4-tetrahydroisoquinoline-2-carbonyl]-1,2,3,4-tetrahydroisoquinolin-6-yl}-N-(4-hydroxyphenyl)-1,2-dimethyl-1H-pyrrole-3-carboxamide] | 0.0167 µM | 3.96 | 0.0662 µM
1.9 nM | 29.2 | 0.38 nM | 9.4 | 0.6 nM | 0.07 nM | Cc1c(N(C(=O)c2cc(-c3cc4c(cc3C(=O)N3Cc5ccccc5C[C@H]3CN3CCCCC3)CN(C(=O)COc3ccccc3)CC4)n(C)c2C)c2ccc(O)cc2)cc(C#N)n1C [Example 133, N-(5-cyano-1,2-dimethyl-1H-pyrrol-3-yl)-N-(4-hydroxyphenyl)-1,2-dimethyl-5-[2-(2-phenoxyacetyl)-7-[(3S)-3-[(piperidin-1-yl)methyl]-1,2,3,4-tetrahydroisoquinoline-2-carbonyl]-1,2,3,4-tetrahydroisoquinolin-6-yl]-1H-pyrrole-3-carboxamide] | 0.01 µM | 5.59 | 0.0556 µM
